Test system: NCI-H1155 cells
Assay: NSCLC cell viability, CellTiter-Glo, NCI-H1155 cells
Type: cell-based
Details: Homo sapiens; NCI-H1155 cells, CellTiter-Glo, 72 hours of treatment; read-out: Cell viability classification (NCI-H1155)

| Compound | IC50 |
| --- | --- |
| O=C1CCC(N2Cc3cc(C(=O)N4CC5(CCOC5)C4)ccc3C2=O)C(=O)N1 (stereo not shown) [Example 187, 3-(1-oxo-5-(6-oxa-2-azaspiro[3.4]octane-2-carbonyl)isoindolin-2-yl)piperidine-2,6-dione] | > 1000 nM |
| O=C1CCC(N2Cc3cc(C(=O)N4CCC5(CCC(F)(F)CC5)C4)ccc3C2=O)C(=O)N1 (stereo not shown) [Example 190, 3-(5-(8,8-difluoro-2-azaspiro[4.5]decane-2-carbonyl)-1-oxoisoindolin-2-yl)piperidine-2,6-dione] | > 1000 nM |
| O=C1CCC(N2Cc3cc(C(=O)N4CC(F)(c5cccc(F)c5)C4)ccc3C2=O)C(=O)N1 (stereo not shown) [Example 191, 3-(5-(3-fluoro-3-(3-fluorophenyl)azetidine-1-carbonyl)-1-oxoisoindolin-2-yl)piperidine-2,6-dione] | 100 to 1000 nM |
| O=C1CCC(N2Cc3cc(C(=O)N4CC(c5ccccc5F)C4)ccc3C2=O)C(=O)N1 (stereo not shown) [Example 194, 3-(5-(3-(2-fluorophenyl)azetidine-1-carbonyl)-1-oxoisoindolin-2-yl)piperidine-2,6-dione] | 100 to 1000 nM |
| O=C1CCC(c2nc3ccc(COC(=O)Nc4cc(OC(F)(F)F)ccc4F)cc3o2)C(=O)N1 (stereo not shown) [Example 212, (2-(2,6-dioxopiperidin-3-yl)benzo[d]oxazol-6-yl)methyl (2-fluoro-5-(trifluoromethoxy)phenyl)carbamate] | 100 to 1000 nM |
| O=C1CCC(N2Cc3cc(C(=O)NC4CC5(C=C(c6ccc(OC(F)(F)F)cc6)C5)C4)ccc3C2=O)C(=O)N1 (stereo not shown) [Example 213, 2-(2,6-dioxopiperidin-3-yl)-1-oxo-N-(6-(4-(trifluoromethoxy)phenyl)spiro[3.3]hept-5-en-2-yl)isoindoline-5-carboxamide] | 100 to 1000 nM |
| O=C1CCC(N2Cc3cc(C(=O)NC4CC5(C=C(c6ccc(F)cc6F)C5)C4)ccc3C2=O)C(=O)N1 (stereo not shown) [Example 214, N-(6-(2,4-difluorophenyl)spiro[3.3]hept-5-en-2-yl)-2-(2,6-dioxopiperidin-3-yl)-1-oxoisoindoline-5-carboxamide] | 100 to 1000 nM |
| O=C1CCC(N2Cc3cc(C(=O)NC4CC5(C=C(c6ccc(F)c(F)c6)C5)C4)ccc3C2=O)C(=O)N1 (stereo not shown) [Example 215, N-(6-(3,4-difluorophenyl)spiro[3.3]hept-5-en-2-yl)-2-(2,6-dioxopiperidin-3-yl)-1-oxoisoindoline-5-carboxamide] | 100 to 1000 nM |
| N#Cc1ccc(C2=CC3(C2)CC(NC(=O)c2ccc4c(c2)CN(C2CCC(=O)NC2=O)C4=O)C3)cc1 (stereo not shown) [Example 216, N-(6-(4-cyanophenyl)spiro[3.3]hept-5-en-2-yl)-2-(2,6-dioxopiperidin-3-yl)-1-oxoisoindoline-5-carboxamide] | 100 to 1000 nM |
| O=C1CCC(c2nc3ccc(C(=O)N4CC5(CCC(F)(F)CC5)C4)cc3o2)C(=O)N1 (stereo not shown) [Example 220, 3-(6-(7,7-difluoro-2-azaspiro[3.5]nonane-2-carbonyl)benzo[d]oxazol-2-yl)piperidine-2,6-dione] | > 1000 nM |
| O=C1CCC(c2nc3cc(COC(=O)Nc4ccc(OC(F)(F)F)cc4F)ccc3o2)C(=O)N1 (stereo not shown) [Example 223, (2-(2,6-dioxopiperidin-3-yl)benzo[d]oxazol-5-yl)methyl (2-fluoro-4-(trifluoromethoxy)phenyl)carbamate] | 100 to 1000 nM |
| O=C1CCC(c2nc3cc(COC(=O)Nc4cc(Cl)ccc4F)ccc3o2)C(=O)N1 (stereo not shown) [Example 224, (2-(2,6-dioxopiperidin-3-yl)benzo[d]oxazol-5-yl)methyl (5-chloro-2-fluorophenyl)carbamate] | 100 to 1000 nM |
| O=C1CCC(N2Cc3cc(C(=O)NC4CC5(C4)CC(O)(c4ccc(F)cc4)C5)ccc3C2=O)C(=O)N1 (stereo not shown) [Example 225, 2-(2,6-dioxopiperidin-3-yl)-N-(6-(4-fluorophenyl)-6-hydroxyspiro[3.3]heptan-2-yl)-1-oxoisoindoline-5-carboxamide] | > 1000 nM |
| O=C1CCC(N2Cc3cc(C(=O)N4CC5(CC(c6ccc(F)cc6F)C5)C4)ccc3C2=O)C(=O)N1 (stereo not shown) [Example 229, 3-(5-(6-(2,4-difluorophenyl)-2-azaspiro[3.3]heptane-2-carbonyl)-1-oxoisoindolin-2-yl)piperidine-2,6-dione] | 10 to 100 nM |
| O=C1CCC(N2Cc3cc(C(=O)N4CC5(C=C(c6ccc(F)c(F)c6)C5)C4)ccc3C2=O)C(=O)N1 (stereo not shown) [Example 234, 3-(5-(6-(3,4-difluorophenyl)-2-azaspiro[3.3]hept-5-ene-2-carbonyl)-1-oxoisoindolin-2-yl)piperidine-2,6-dione] | 10 to 100 nM |
| COc1ccc(C2=CC3(C2)CN(C(=O)c2ccc4c(c2)CN(C2CCC(=O)NC2=O)C4=O)C3)cc1 (stereo not shown) [Example 237, 3-(5-(6-(4-methoxyphenyl)-2-azaspiro[3.3]hept-5-ene-2-carbonyl)-1-oxoisoindolin-2-yl)piperidine-2,6-dione] | > 1000 nM |
| N#Cc1ccccc1C1=CC2(C1)CN(C(=O)c1ccc3c(c1)CN(C1CCC(=O)NC1=O)C3=O)C2 (stereo not shown) [Example 238, 2-(2-(2-(2,6-dioxopiperidin-3-yl)-1-oxoisoindoline-5-carbonyl)-2-azaspiro[3.3]hept-5-en-6-yl)benzonitrile] | 100 to 1000 nM |

The next lines start with the values.

| IC50 | Compound |
| --- | --- |
| > 1000 nM | O=C1CCC(N2Cc3cc(C(=O)N4CC5(COC5)C4)ccc3C2=O)C(=O)N1 (stereo not shown) [Example 188, 3-(1-oxo-5-(2-oxa-6-azaspiro[3.3]heptane-6-carbonyl)isoindolin-2-yl)piperidine-2,6-dione] |
| 100 to 1000 nM | O=C1CCC(N2Cc3cc(C(=O)N4CC(c5ccc(F)cc5)C4)ccc3C2=O)C(=O)N1 (stereo not shown) [Example 192, 3-(5-(3-(4-fluorophenyl)azetidine-1-carbonyl)-1-oxoisoindolin-2-yl)piperidine-2,6-dione] |
| 100 to 1000 nM | O=C1CCC(N2Cc3cc(C(=O)N4CC(c5cccc(F)c5)C4)ccc3C2=O)C(=O)N1 (stereo not shown) [Example 193, 3-(5-(3-(3-fluorophenyl)azetidine-1-carbonyl)-1-oxoisoindolin-2-yl)piperidine-2,6-dione] |
| 100 to 1000 nM | O=C1CCC(c2nc3ccc(C(=O)N4CC5(CC=C(F)CC5)C4)cc3o2)C(=O)N1 (stereo not shown) [Example 221, 3-(6-(7-fluoro-2-azaspiro[3.5]non-6-ene-2-carbonyl)benzo[d]oxazol-2-yl)piperidine-2,6-dione] |
| 10 to 100 nM | O=C1CCC(N2Cc3cc(C(=O)N4CC5(CCC(C(F)(F)F)C5)C4)ccc3C2=O)C(=O)N1 (stereo not shown) [Example 222, 3-(1-oxo-5-(6-(trifluoromethyl)-2-azaspiro[3.4]octane-2-carbonyl)isoindolin-2-yl)piperidine-2,6-dione] |
| 10 to 100 nM | O=C1CCC(N2Cc3cc(C(=O)N4CC5(CC(c6ccc(F)c(F)c6)C5)C4)ccc3C2=O)C(=O)N1 (stereo not shown) [Example 228, 3-(5-(6-(3,4-difluorophenyl)-2-azaspiro[3.3]heptane-2-carbonyl)-1-oxoisoindolin-2-yl)piperidine-2,6-dione] |
| 100 to 1000 nM | N#Cc1ccc(C2CC3(C2)CN(C(=O)c2ccc4c(c2)CN(C2CCC(=O)NC2=O)C4=O)C3)cc1 (stereo not shown) [Example 232, 4-(2-(2-(2,6-dioxopiperidin-3-yl)-1-oxoisoindoline-5-carbonyl)-2-azaspiro[3.3]heptan-6-yl)benzonitrile] |
| > 1000 nM | COc1ccc(C2CC3(C2)CN(C(=O)c2ccc4c(c2)CN(C2CCC(=O)NC2=O)C4=O)C3)cc1 (stereo not shown) [Example 233, 3-(5-(6-(4-methoxyphenyl)-2-azaspiro[3.3]heptane-2-carbonyl)-1-oxoisoindolin-2-yl)piperidine-2,6-dione] |

— US20260285872A1, “COMPOUNDS AND METHODS FOR DEGRADING GSPT1” (priority 2023, published 2026)
